As a reminder, the Ki is the equilibrium dissociation constant of an inhibitor or competing ligand from its target. Low readings indicate a stronger hold on the target, high ones a looser hold on the target.

The structures appear in SMILES notation. Some results are limits rather than exact numbers.

A short description of data set [1]: Critical micelle concentration (CMC) measurement, dye micellization. It is filed as physicochemical. The conditions noted are these: fluorescein dye micellization in water, pH 6.9, room temperature.
The next data set deals with [3H]-AEA uptake. The data set is described as follows: Cellular uptake of [3H]-AEA in human primary monocytes (assay C). The conditions noted are these: Figure 1(a), 1 µM. It is filed as cell-based. The protocol: • Figure 1: AEA re-uptake inhibition of 2E,4E-dieneamides 1 and 9 into human primary monocytes and U937 cells. […] Data are mean values ± SEM of 3 independent experiments in a sigmoidal dose-response curve. • Figure 2: Concentration-dependent effects of 4 and 5 on FAAH activity. […] The maximal inhibition (32%) of 5 was measured at 1 µM. Data are mean values ± SEM of 3 independent experiments. • Figure 3: Effects of low nM concentrations of N-alkylamide 7 on FAAH activity alone and in combination with the FAAH inhibitor URB597. […] Data are mean values ± SEM of 3 independent experiments. • Figure 4: 1 and 9 inhibit LPS-induced TNF-alpha release into culture medium (measured by ELISA). Human macrophages (10^6 cells) were stimulated with LPS (500 ng/ml) and treated with UCM707 and/or compounds 1 and 9 at 5 µM for 18 h. N = 3 ± SEM. • Figure 5: UCM707 (positive control) and compounds 1 and 9 diminish NO2^- production. Human macrophages (10^6 cells) were stimulated with LPS (500 ng/ml) and treated with UCM707 and/or compounds 1 and 9 at 5 µM for 18 h. Culture supernatants were assayed for nitrite levels, using the Griess reagent as a reflection of NO production. […]
Human lymphoma U937 cells were grown in RPMI 1640 medium (Invitrogen, Basel, Switzerland) supplemented with 10% fetal bovine serum, […] fungizone (amphotericin B), 100 units/ml penicillin, 100 µg/ml streptomycin, and 2 mM L-glutamine (all from Invitrogen) and selected for the cellular AEA uptake assay. […] The filters-bound radioactivity was measured using a Beckman LS6500 scintillation counter. Results were expressed as % of AEA uptake versus cells treated with solvent and the EC50 and IC50 values were calculated from the sigmoidal curves, which were generated using the GraphPad Prism (GraphPad Software, San Diego, CA, US).

In the next data set the target is T1, CB1 (Homo sapiens, UniProt P21554).
T1 construct: purchased Perkin Elmer RBHCB1M
T1 sequence (P21554 whole entry): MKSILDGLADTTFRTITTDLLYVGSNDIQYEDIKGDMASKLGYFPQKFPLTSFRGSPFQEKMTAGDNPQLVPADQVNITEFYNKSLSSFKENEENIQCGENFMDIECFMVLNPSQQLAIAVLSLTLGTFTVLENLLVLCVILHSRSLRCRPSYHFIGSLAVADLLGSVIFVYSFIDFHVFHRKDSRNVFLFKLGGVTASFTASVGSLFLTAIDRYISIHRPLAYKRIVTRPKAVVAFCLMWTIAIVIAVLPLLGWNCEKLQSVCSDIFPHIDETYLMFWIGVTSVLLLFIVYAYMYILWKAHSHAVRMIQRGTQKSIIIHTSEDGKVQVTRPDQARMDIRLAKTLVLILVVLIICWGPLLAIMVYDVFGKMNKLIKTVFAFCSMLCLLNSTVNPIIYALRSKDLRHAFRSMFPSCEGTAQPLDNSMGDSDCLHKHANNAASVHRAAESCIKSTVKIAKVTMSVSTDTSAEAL
The data set is described as follows: Radioligand displacement assay on CB1 receptor. Type of data set: binding. As to the method: For the CB1 receptor, binding experiments were performed in the presence of 0.39 nM of the radioligand [^3H]CP55,940 (168 Ci/mmol) (Perkin Elmer, Waltham, MA, US) at 30°C in siliconized glass vials together with 7.16 µg of membrane recombinantly over-expressing CB1 (No. RBHCB1M, Perkin Elmer, Waltham, MA, US), which was resuspended in 0.2 mL (final volume) binding-buffer (50 mM TRIS-HCl, 2.5 mM EGTA, 5 mM MgCl2, 0.5 mg/mL fatty acid free BSA, pH 7.4). Test compounds were present at varying concentrations and the nonspecific binding of the radioligand was determined in the presence of 10 µM CP55,940 (Tocris Cookson Ltd., Bristol, UK). After 1.5 h incubation, the suspension was rapidly filtered through 0.05% polyethylenimine pre-soaked GF/C glass fiber filters on a 96-well cell harvester and washed nine times with 0.5 mL ice-cold washing-buffer (50 mM TRIS-HCl, 2.5 mM EGTA, 5 mM MgCl2, 2% BSA, pH 7.4). Radioactivity on filters was measured with a Beckman LS 6500 scintillation counter in 3 mL Ultima Gold scintillation liquid (Perkin Elmer, Waltham, MA, US). Data collected from three independent experiments performed in triplicates were normalized between 100% and 0% specific binding for [^3H]CP55,940. […] Derived from the dissociation constant (KD) of [^3H]CP55,940 and the concentration-dependent displacement (IC50 value), inhibition constants (Ki) of competitor compounds were calculated using the Cheng-Prusoff equation [Ki = IC50/(1+ L/KD)].
On the technique in general: Displacement assays read how much labelled ligand stays bound in the presence of the test substance.

Take `CCCCCCC/C=C/C=C/C(=O)NCCO` [Example 1, (2E,4E)-N-(2-hydroxyethyl)dodeca-2,4-diene amide]: the CMC in data set [1] is on record as >10 µM. The “[3H]-AEA uptake inhibition” value in data set [3H]-AEA uptake is given as “potently inhibited”. Also, the Ki on CB1 was > 20 µM.
Turning to `CCCCCCC/C=C/C=C/C(=O)NCCc1cccc(OC)c1` [Example 9, (2E,4E)-N-(3-methoxyphenethyl)dodeca-2,4-diene amide], the CMC in data set [1] is >5 µM. The “[3H]-AEA uptake inhibition” value in data set [3H]-AEA uptake is “potently inhibited”. In addition, the Ki at CB1 was > 20 µM.

The values are drawn from patent publication EP2435019B1, “DODECA-2E,4E-DIENE AMIDES AND THEIR USE AS MEDICAMENTS AND COSMETICS” (Dr. August Wolff GmbH & Co. KG Arzneimittel, priority 2009, dated 2010).
